From patent US9775902B2, “Compounds and methods for treatment of stroke” (FIBROGEN, INC, priority 2006, dated 2017)
Like-named read-outs stand apart in the source and are kept apart here. Marks after values point to notes of the source that are not given here.

Columns and labels:
erythropoietin [1] = test: Plasma EPO in mice after intravenous injection; assay type: in vivo, Swiss Webster mice; conditions: mouse plasma, 20 mg/kg i.v., four hours after injection; for fold induction at 20 mg/kg: iv, 4 h, read-out: EPO Fold Increase; for EPO: mouse EPO ELISA kit (**)
Procedure: (§1) The effect of compounds of the present invention on expression of cytoprotective and neuroprotective factors in vivo was evaluated as follows. In one series of experiments, male Swiss Webster mice (29-34 g) were administered various compounds of the present invention via intravenous injection into the caudal tail vein. Animals treated by intravenous injection received a 6 ml/kg volume of either 5% Dextrose with an equimolar amount of NaOH or Meglumine (vehicle control) or 20 mg/kg of a compound of the present invention in 5% dextrose with an equimolar amount of NaOH or Meglumine. Four hours after injection, the animals were anesthetized and exsanguinated. Plasma samples were collected in EDTA and heparin coated microtainer tubes. Plasma samples were assayed for erythropoietin and VEGF using commercially-available ELISA kits purchased from R & D Systems (Minneapolis Minn.).

erythropoietin [2] = test: Plasma EPO in mice after oral gavage; assay type: in vivo, Swiss Webster mice; conditions: mouse plasma, oral gavage 6-60 mg/kg, six hours
Procedure: (§2) In another series of experiments, male Swiss Webster mice (29-34 g) were administered various compounds of the present invention via oral gavage using a ball-tipped gavage needle. Animals treated by oral gavage received a 4-10 ml/kg volume of either 0.5% carboxymethyl cellulose with or without 0.1% Polysorbate 80 (vehicle control) or various doses (6-60 mg/kg) of a compound of the present invention in 0.5% CMC, with or without 0.1% Polysorbate 80. Blood samples were collected and tissues were processed as described above. Six hours after injection, the animals were anesthetized and exsanguinated.
(§3) Plasma samples were collected in EDTA and heparin coated microtainer tubes. Plasma samples were assayed for erythropoietin and VEGF using commercially-available ELISA kits purchased from R & D Systems (Minneapolis Minn.).

VEGF [3] = test: Plasma VEGF in mice after intravenous injection; assay type: in vivo, Swiss Webster mice; conditions: mouse plasma, 20 mg/kg i.v., four hours after injection; for fold induction at 20 mg/kg: iv, 4 h, read-out: VEGF Fold Increase
Procedure: as §1

erythropoietin (EPO) [4] = test: EPO expression in Kelly neuroblastoma cells; assay type: cell-based; conditions: for EPO: conditioned media after overnight incubation
Procedure: (§4) The effect of compounds of the present invention on expression of cytoprotective and neuroprotective factors in neuroblastoma cells was evaluated as follows. Kelly neuroblastoma cells (see, e.g., DSMZ, cat# ACC-355, Braunschweig Germany) were treated with various compounds of the present invention or 1% DMSO (negative control). Following an overnight incubation, the conditioned media was collected from cell cultures and analyzed for erythropoietin (EPO) and vascular endothelial growth factor (VEGF) expression using a QUANTIKINE immunoassay (R&D Systems, Inc., Minneapolis Minn.) according to the manufacturer's instructions.

erythropoietin (EPO) [5] = test: EPO expression in Hep3B cells (QUANTIKINE immunoassay of conditioned media); assay type: cell-based, Human; conditions: for Fold Increase Over Control: EPO, vs 1% DMSO control; for EPO: conditioned media after overnight incubation with compound
Procedure: The effect of compounds of the present invention on expression of cytoprotective and neuroprotective factors in cells was evaluated as follows. Human cells derived from hepatocarcinoma (Hep3B) tissue (see, e.g., American Type Culture Collection, Manassas Va.) were seeded into 35 mm culture dishes and grown at 37° C., 20% O2, 5% CO2 in Minimal Essential Medium (MEM), Earle's balanced salt solution (Mediatech Inc., Herndon Va.), 2 mM L-glutamine, 0.1 mM non-essential amino acids, 1 mM sodium pyruvate, and 10% FBS. When cell layers reached confluence, the media was replaced with OPTI-MEM media (Invitrogen Life Technologies, Carlsbad Calif.) and cell layers were incubated for approximately 24 hours in 20% O2, 5% CO2 at 37° C. Various compounds of the present invention or 1% DMSO (negative control) were then added to existing media and incubation was continued overnight.
Following incubation, the conditioned media was collected from cell cultures and analyzed for erythropoietin (EPO) expression using a QUANTIKINE immunoassay (R&D Systems, Inc., Minneapolis Minn.) according to the manufacturer's instructions.

VEGF [6] = test: Plasma VEGF in mice after oral gavage; assay type: in vivo, Swiss Webster mice; conditions: mouse plasma, oral gavage 6-60 mg/kg, six hours
Procedure: as §2, §3

[7] = tested on: vascular endothelial growth factor (VEGF); test: VEGF expression in Kelly neuroblastoma cells; assay type: cell-based; conditions: for VEGF: conditioned media after overnight incubation
Procedure: as §4

[8] = tested on: C57BL/6 mice, permanent occlusion of the MCA; test: Permanent middle cerebral artery occlusion (pMCAO) in C57BL/6 mice: infarct volume and edema; assay type: in vivo; conditions: C57BL/6 mice pMCAO, 20-60 mg/kg i.v.; for inhibition in vivo at up to 20 mg/kg: Mus musculus, iv, 24 h, 24 hours after MCA occlusion, read-out: Percent Reduction in Infarct Volume
Procedure: The effect of compounds of the present invention on infarct volume and edema associated with stroke was examined in an animal model of ischemic stroke. In these studies, mice were subjected to permanent occlusion of the middle cerebral artery. Mice were anesthetized intraperitoneally with avertin (0.5 mg/g). Mice were then immobilized in a rodent stereotaxic frame (Kopf Instruments, Tujunga Calif.) and maintained with avertin as needed. The surgical area of the head was swabbed with 70% ethanol and a lateral incision was made between the right orbit and the right ear. […] The distal course of the middle cerebral artery (MCA) was visible through the translucent skull. A small burr-hole craniotomy was performed with a micro-drill (Fine Science Tools, Foster City Calif.). The meninges/dura was removed and the MCA was coagulated by bipolar diathermy. The muscle and soft tissue were replaced and the incision closed with vet-bond adhesive (3M, St. Paul Minn.). These studies were performed in two different mouse models of pMCAO as described below.
In one series of experiments, male C57BL/6 mice (25-35 g) were subjected to permanent occlusion of the MCA as described above. Compounds of the present invention were administered by intravenous injection at various times before or after MCA occlusion (see Table 7). Animals administered compound by intravenous injection received a 6 ml/kg volume of either 5% Dextrose with an equimolar amount of Meglumine (vehicle control) or 20-60 mg/kg of a compound of the present invention in 5% dextrose with an equimolar amount of Meglumine. Body temperature of the animals was maintained by use of a heating pad both during and after surgery. Twenty-four hours after MCA occlusion animals were euthanized with CO2 and their brains removed. After removal, the brain was sliced in 7 coronal sections, each 1 mm thick. The sections were placed rostral side down in a petri dish and stained with 1% Triphenyl tetrazolium chloride for 20 minutes at 37° C. for determination of infarct volume. Brain sections were then digitally photographed and analyzed for changes in infarct volume and extent of edema. Infarct volumes were determined by measuring the infarcted (i.e., non-stained) areas of each brain section and multiplying this value by the section thickness. Extent of edema was determined by the net increase in volume of the ipsilateral cortex compared to that of the contralateral cortex of brain sections.
The effect of compounds of the present invention administered at various times following the onset of stroke was examined further as follows. In these studies, changes in infarct volume were measured using an animal model of stroke when compounds of the present invention were administered from 0 to 8 hours following permanent MCA occlusion. In one series of experiments, male C57BL/6 mice (25-35 g) were subjected to permanent occlusion of the MCA as described above. Compound F was administered to the animals by a single intravenous bolus injection at various times up to 5 hours after MCA occlusion (see Table 8 below). Animals administered compound by intravenous injection received a 6 ml/kg volume of either 5% Dextrose with an equimolar amount of NaOH (vehicle control) or 60 mg/kg of Compound F in 5% dextrose with an equimolar amount of NaOH. Body temperature of the animals was maintained by use of a heating pad both during and after surgery. Changes in infarct volumes were determined as described above.
In another set of experiments, male C57BL/6 mice (25-35 g) were subjected to permanent occlusion of the MCA as described above. Compound F was administered by single intravenous bolus injection at various times up to 8 hours after MCA occlusion (see Table 9 below). Animals administered compound by intravenous injection received a 6 ml/kg volume of either 5% Dextrose with an equimolar amount of Meglumine (vehicle control) or 60 mg/kg of Compound F in 5% dextrose with an equimolar amount of Meglumine. […]

[9] = compound given 4 hr after occlusion

Row | SMILES | fold induction at 20 mg/kg (erythropoietin [1]) | EPO (erythropoietin [1]) [pg/mL] | EPO Fold Increase (erythropoietin [2]) | EPO (erythropoietin [2]; mouse EPO ELISA kit (**)) [pg/mL] | fold induction at 20 mg/kg (VEGF [3]) | VEGF (VEGF [3]) [pg/mL] | EPO Fold Increase (erythropoietin (EPO) [4]) | EPO (erythropoietin (EPO) [4]) [mIU/ml] | Fold Increase Over Control (erythropoietin (EPO) [5]) | EPO (erythropoietin (EPO) [5]) [mIU/ml] | VEGF (VEGF [6]) [pg/mL] | VEGF Fold Increase (VEGF [6]) | VEGF Fold Increase [7] | VEGF [7] [pg/mL] | EPO (erythropoietin [2]; human EPO ELISA kit (*)) [mIU/ml] | inhibition in vivo at up to 20 mg/kg ([8]; compound given 0 hr) [%] | inhibition in vivo at up to 20 mg/kg [8, 9] [%] | Percent Reduction in Edema ([8]; compound given 0 hr)
1 | C#Cc1nc(C(=O)NCC(=O)O)c(O)c2ccsc12 [Compound M, [(7-Ethynyl-4-hydroxy-thieno[2,3-c]pyridine-5-carbonyl)-amino]-acetic acid] | 180 | 161.6 | 1.26 | 8.8 | 1.31 | 38 | 285 | 57 | 11.6 | 64.1 | 38 | 1.23 | 2.0 | 1436 | – | – | – | –
2 | CC(NC(=O)c1ncc2cc(Sc3ccccc3)ccc2c1O)C(=O)O (stereo not shown) [Compound Y, 2-[(4-Hydroxy-7-phenylsulfanyl-isoquinoline-3-carbonyl)-amino]-propionic acid] | – | – | 8.85 | – | – | – | – | – | – | – | 52.7 | 2.28 | – | – | 11.5 | – | – | –
3 | Cc1nc2ccc(Oc3ccc4c(O)c(C(=O)NCC(=O)O)nc(C)c4c3)cc2o1 [Compound AF, {[4-Hydroxy-1-methyl-7-(2-methyl-benzooxazol-6-yloxy)-isoquinoline-3-carbonyl]-amino}-acetic acid] | 21.3 | 192 | – | – | 2.83 | 82 | 12.24 | 231.3 | 15.3 | 101.6 | – | – | 3.5 | 5124 | – | 21 | – | –
4 | N#Cc1nc(C(=O)NCC(=O)O)c(O)c2cc(Oc3ccc4c(c3)OCO4)ccc12 [Compound AN, {[6-(Benzo[1,3]dioxol-5-yloxy)-1-cyano-4-hydroxy-isoquinoline-3-carbonyl]-amino}-acetic acid] | 26.2 | 14964 | – | – | 1.05 | 39 | 13.28 | 251 | 16.2 | 42.8 | – | – | 5.3 | 7252 | – | – | 46 | –
5 | Cc1nc(C(=O)NCC(=O)O)c(O)c2cc(-c3ccc(F)cc3)sc12 [Compound P, {[2-(4-Fluoro-phenyl)-4-hydroxy-7-methyl-thieno[2,3-c]pyridine-5-carbonyl]-amino}-acetic acid] | 5.88 | 62.3 | – | – | 1.15 | 45 | 13.90 | 262.8 | 7.2 | 54.9 | – | – | 5.1 | 7453 | – | 37 | – | –
6 | O=Cc1nc(C(=O)NCC(=O)O)c(O)c2cc(Oc3ccccc3)ccc12 [Compound AK, [(1-Formyl-4-hydroxy-6-phenoxy-isoquinoline-3-carbonyl)-amino]-acetic acid] | 62.8 | 2763 | – | – | 1.12 | 47 | 2.23 | 42.2 | 14.9 | 35.3 | – | – | 3.9 | 5698 | – | 13 | – | −12* %
7 | O=C(O)CNC(=O)c1nc(Br)c2ccsc2c1O [Compound AE, [(4-Bromo-7-hydroxy-thieno[3,2-c]pyridine-6-carbonyl)-amino]-acetic acid] | – | 3825 | – | – | 1.45 | 29 | 3.6 | 95.5 | 3.0 | 12.6 | – | – | 2.7 | 3710.0 | – | – | 63 | –
